Entries after “also recorded” stand apart in the source; their conditions may differ.
Tests used:
[1] = test system: 3T3-L1 preadipocytes and mature adipocytes; test: MTS test for cell viability; format: cell-based, mouse
Description: (§1) Preparation of preadipocytes. 3T3-L1 mouse embryo fibroblasts are obtained and cultured. Cells are cultured at 37° C. in a humidified 5% CO2 atmosphere and grown in Dulbecco's modified Eagle's medium (DMEM) with 10% bovine calf serum. Confluency is induced for 2 days (Days −1 and 0) and preadipocytes are cultured in DMEM with 10% fetal bovine serum (FBS/DMEM) medium, supplemented with 167 nM insulin, […] isobutylmethylxanthine, and 1 μM dexamethasone for 2 days (Days 1 and 2).
Preparation (induction) of mature adipocytes from preadipocytes. Preadipocytes prepared as above are then maintained in a culture medium with 167 nM insulin supplement for another 2 days (Days 3 and 4), followed by culturing with 10% FBS/DMEM medium for an additional 4 days (Days 5-8), at which time >90% of the cells are expected to have differentiated and matured into adipocytes with accumulated fat droplets. All media contains 100 U/mL penicillin, 100 μg/mL streptomycin, and 292 μg of L-glutamine/mL. […]
Test for cell viability. […] The plate is analyzed by spectrometry at a wavelength of 490 nm, which is an absorbance peak for formazan. The quantity of formazan as measured by absorbance at 490 nm is a directly proportional to the number of viable cells.

[2] = test system: mature adipocytes (from 3T3-L1); test: Laser scanning cytometry (annexin V/PI) test for apoptosis; format: cell-based, mouse; settings: 24 hours
Description: as §1
(§2) Preparation (induction) of mature adipocytes from preadipocytes. Preadipocytes prepared as above are then maintained in a culture medium with 167 nM insulin supplement for another 2 days (Days 3 and 4), followed by culturing with 10% FBS/DMEM medium for an additional 4 days (Days 5-8), at which time >90% of the cells are expected to have differentiated and matured into adipocytes with accumulated fat droplets. All media contains 100 U/mL penicillin, 100 μg/mL streptomycin, and 292 μg of L-glutamine/mL.
All experiments, except where otherwise indicated, are performed with bimatoprost added to the culture medium for a final concentration of 0%, 0.003%, 0.03%, or 0.3% for a duration of 3, 6, 12, or 24 hours [with 1:1000 dimethyl sulfoxide (DMSO)]. […]
Test for apoptosis (1). […] Apoptotic cells fluoresce and are detected by LSC, since AV binds specifically to phosphatidylserine in the disrupted plasma membrane. […]

[3] = test system: 3T3-L1 preadipocytes and mature adipocytes; test: TUNEL imaging test for apoptosis; format: cell-based, mouse
Description: as §1, §2
Test for apoptosis (2). Terminal Deoxynucleotidyl Transferase dUTP Nick-End Labeling (TUNEL) Imaging is one of the most common assays for apoptosis. […] Apoptosis manifests as fluorescence upon microscopic examination, which reflects the antibody-labeled BrdU incorporated at the cleaved portions of DNA.

3T3-L1 preadipocytes = test: Oil-Red-O test for differentiation of preadipocytes into mature adipocytes; format: cell-based, mouse
Description: as §1, §2
Test for differentiation of preadipocytes into mature adipocytes. Oil-Red-O, a specific lipid stain, is used to test the effect of bimatoprost on adipogenesis. […] For each dish, multiple images are taken and analyzed for average lipid droplet size, percentage lipid area, and total droplet number with software. […]

[4] = test system: laboratory rodents (hairless rats or nude mice); test: In vivo rodent study, daily topical ointment on abdominal skin; settings: daily topical ointment 0.003-0.3%, six months
Description: Animal preparation. Genetically uniform laboratory rodents (for example, hairless rats or nude mice) are used. They are adult laboratory rodents similar in size at the commencement of the study (approximately postnatal week 15 for rats). Multiple animals are tested. Animals randomized to bimatoprost are housed separately from control animals but are kept in the same room under identical environmental conditions. All animals are fed a standard diet, appropriate for the species, ad libidum.
Method. In all cases the vehicle is a compatible ointment, such as petrolatum, with a final bimatoprost concentration of 0%, 0.003%, 0.03%, or 0.3%. A fixed amount of ointment, for example 1 gram, is applied daily in a thin film over a uniform surface area of the abdominal skin of each animal. Each animal is randomized to a daily application of a dose of topical bimatoprost or vehicle alone. On a weekly basis, total body mass of each animal is determined on a scale. Total body fat is estimated by any of the several methods established for this purpose, for example, water displacement (Dahms et al. (1982) J NUTR. 112: 398-400), isotopic dilution (Culebras et al. (1977) J. PHYSIOL. 232: R60-65), Total Body Electrical Conductance (TOBEC) (Baer et al. (1993) PHYSIOL. BEHAV. 53: 1195-99), Dual-Energy X-Ray Absorptiometry (DEXA) (Bertin et al. (1998) J NUTRITION 128: 1550-54), or Nuclear Magnetic Resonance (NMR) (Kunnecke et al. (2004) OBES RES. 12: 1604-151. Animals are maintained and monitored in this fashion for six months, at which point they are sacrificed.
Analysis and Results. Abdominal fat pads of the sacrificed animals are excised and measured directly for mass and volume. Direct carcass analysis with chemical extraction may be further performed (Frisch et al. (1977) PNAS 74: 379-383). All results are normalized with reference to baseline values and then compared between bimatoprost and control groups.

human subjects = test: In vivo human randomized double-blind study, topical ointment over triceps; settings: daily petrolatum ointment 0.003-0.3%, 6 months
Source text: Multiple human subjects (both male and female), for example, with body mass indices of 30 or more but otherwise healthy, are entered into a randomized double-blind study. Either the left or the right arm is randomized to receive topical bimatoprost; the other arm receives vehicle only. Bimatoprost is supplied in a petrolatum-based ointment (the vehicle) at a final concentration of 0%, 0.003%, 0.03% or 0.3%. Ointment containers are unlabeled as to the presence or concentration of bimatoprost. Each day, subjects apply a thin film of ointment to the skin over the respective triceps while wearing new, clean surgical gloves. Subjects are instructed to refrain from washing the treated area for at least 8 hours and are instructed to refrain from wearing tight clothing or occlusive dressings that will come into contact with the treated area. Body fat calipers are used to measure fat in the triceps region bilaterally on a weekly basis. The study continues for 6 months. […] As a result, this contemplated outcome will show, in vivo, that compounds according to the present invention, including bimatoprost, can reduce fat.

human patients = test: Clinical application examples (Examples 4-8), local bimatoprost to reduce fat deposits; format: in vivo; settings: for fat pad between shoulders / fatty deposits on cheeks: daily ointment to face and between shoulders
Source text: In light of the foregoing description, the specific non-limiting examples presented below are for illustrative purposes and not intended to limit the scope of the invention in any way. In Examples 4-8, various modes of non-systemic administration of a cyclopentane heptanoic acid, 2-arylalkyl or cycloalkyl compound or derivative thereof can be used, for example, by topical application (ointment, cream, or transdermal patch), subcutaneous injection, intramuscular injection, or intralesional injection, any of which may involve a controlled (or sustained) release formulation or depot. In addition to medical therapy, the person's physician recommends a regimen of diet and exercise. After six months the person is unable to lose weight. The physician prescribes daily topical application of a bimatoprost ointment to the abdomen as treatment for central obesity. […] The person's physician prescribes a daily application of a bimatoprost ointment to the face and between the shoulders as treatment for the fat deposits. […] The person's physician prescribes a daily application of a bimatoprost ointment to the face and between the shoulders as treatment for the fat deposits. […] The plastic surgeon prescribes a daily application of a bimatoprost ointment to the hips and thighs as treatment for the fat deposits. […] The doctor prescribes an ophthalmic preparation of bimatoprost daily to both eyes as a treatment for the proptosis and exposure symptoms.

human eye = settings: eyedrops, glaucoma, cited from earlier work
[5] = preadipocytes and/or mature adipocytes
[6] = Example 4, obese person, daily ointment to abdomen
[7] = Example 5, Cushing syndrome secondary to prednisone
[8] = Example 6, HIV-related lipodystrophy
[9] = Example 8, Grave's disease orbitopathy, ophthalmic preparation daily to both eyes

CCNC(=O)CCC/C=C\C[C@@H]1[C@@H](/C=C/[C@@H](O)CCc2ccccc2)[C@H](O)C[C@@H]1O [bimatoprost, cyclopentane N-ethyl heptenamide-5-cis-2-(3α-hydroxy-5-phenyl-1-trans-pentenyl)-3,5-dihydroxy, [1α, 2β, 3α, 5α]]
absorbance at 490 nm on MTS testing, treated cells compared to control cells ([1]; bimatoprost 0.003%, 0.03% or 0.3%, up to 24 hours, vs DMSO control): lower absorbance at 490 nm | rates of viability compared to control samples [1, 5]: lower rates of viability | AV-labeled and/or PI-labeled cells on laser scanning cytometry compared to control samples [2]: more AV-labeled and/or PI-labeled (apoptotic or dead) cells | BrdU-antibody-labeled cells on TUNEL imaging compared to control samples ([3]; preadipocytes and mature adipocytes, 24 hours): more BrdU-antibody-labeled (fluorescent) cells | rates of apoptosis compared to control samples [3, 5]: higher rates of apoptosis | lipid droplets on Oil-Red-O staining compared to control samples (3T3-L1 preadipocytes; bimatoprost 0.003%, 0.03%, and 0.3% μM added with induction medium): smaller and fewer lipid droplets | rates of differentiation into mature adipocytes compared to control samples (3T3-L1 preadipocytes; preadipocytes): lower rates of differentiation into mature adipocytes | subcutaneous (abdominal) fat mass compared to control animals [4]: lower subcutaneous (abdominal) fat mass | total body fat mass compared to control animals [4]: lower total body fat mass | total body mass compared to control animals [4]: lower total body mass | fat in treated body area (triceps, calipers) compared to vehicle-treated area (human subjects): lower fat | BMI (human patients; [6]): BMI is reduced | abdominal fat deposits (human patients; [6]): abdominal fat deposits are reduced | fat pad between shoulders (human patients; [7]): fat pad between their shoulders is reduced | fatty deposits on cheeks (human patients; [7]): fatty deposits on the person's cheeks are reduced | fat pad between shoulders (human patients; [8]): fat pad between their shoulders is reduced | fatty deposits on cheeks (human patients; [8]): fatty deposits on the person's cheeks are reduced | fatty deposits on hips and/or thighs (human patients; Example 7, daily ointment to hips and thighs): fatty deposits on the person's hips and/or thighs are reduced | condition (proptosis and exposure symptoms) (human patients; [9]): their condition improves | orbital fat (human patients; [9]): orbital fat is reduced | unwanted side-effects (human eye; Peplinski et al. (2004)): periocular pigmentary changes involving the eyelid; also recorded: deepening of the lid sulcus | intraocular pressure (human eye): decrease intraocular pressure

From US20210308143A1, “COMPOSITIONS AND METHODS FOR REDUCING BODY FAT” (Topokine Therapeutics, Inc., priority 2006, published 2021)
